Measured values from ChEMBL document CHEMBL1201862, “PubChem BioAssay data set” (2004).
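Compound exposure: 48 hours, 5 concentrations, 96-well plates. GI50 is the concentration that inhibits growth by half.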 Calls of active or inactive are those of the source. Cut-off read from the data, not from the text of the source: active = GI50 up to about 1.1 µM and inactive = higher.

What was measured:
Assay in all cases: inhibition of tumour cell growth, NCI panel, 48 h
[1] = tested on: HCT-116
[2] = tested on: MDA-MB-435
[3] = tested on: SF-295
[4] = tested on: NCI-H460
[5] = tested on: HT-29
[6] = tested on: DU-145
[7] = tested on: Hs-578T
[8] = tested on: OVCAR-4
[9] = tested on: KM12
[10] = tested on: RPMI-8226
[11] = tested on: SN12C
[12] = tested on: K562
[13] = tested on: MDA-N
[14] = tested on: U-251
[15] = tested on: CCRF-CEM
[16] = tested on: CAKI-1
[17] = tested on: OVCAR-3
[18] = tested on: COLO 205
[19] = tested on: MDA-MB-231
[20] = tested on: HCC 2998

Question: For `Cc1cc(C)c2c(SCc3ccc(Cl)cc3Cl)nc(N)nc2n1`, which GI50 [1] is on record?
Answer: 27 µM (inactive)

Question: And the GI50 [2]?
Answer: 83 µM (inactive)

Question: What about the GI50 [3] of the same molecule?
Answer: > 100 µM (inactive)

Question: What about the GI50 [4] of the same molecule?
Answer: 21.7 µM (inactive)

Question: And the GI50 [5]?
Answer: > 100 µM (inactive)

Question: What about the GI50 [6] of the same molecule?
Answer: > 100 µM (inactive)

Question: What about the GI50 [7] of the same molecule?
Answer: 37.8 µM (inactive)

Question: What about the GI50 [8] of the same molecule?
Answer: > 100 µM (inactive)

Question: What about the GI50 [9] of the same molecule?
Answer: > 100 µM (inactive)

Question: What about the GI50 [10] of the same molecule?
Answer: 60.7 µM (inactive)

Question: What about the GI50 [11] of the same molecule?
Answer: 21.2 µM (inactive)

Question: And the GI50 [12]?
Answer: 22.7 µM (inactive)

Question: And the GI50 [13]?
Answer: > 100 µM (inactive)

Question: And the GI50 [14]?
Answer: 36.5 µM (inactive)

Question: And the GI50 [15]?
Answer: > 100 µM (inactive)

Question: And the GI50 [16]?
Answer: > 100 µM (inactive)

Question: What about the GI50 [17] of the same molecule?
Answer: 20.6 µM (inactive)

Question: What about the GI50 [18] of the same molecule?
Answer: 34.8 µM (inactive)

Question: And the GI50 [19]?
Answer: > 100 µM (inactive)

Question: For `Cc1cc(C(=O)CCCCOc2ccc(C3=NCCO3)cc2)c(C)n1C`, which GI50 [1] is on record?
Answer: 39.9 µM (inactive)

Question: What about the GI50 [2] of the same molecule?
Answer: 24.7 µM (inactive)

Question: And the GI50 [3]?
Answer: 34.4 µM (inactive)

Question: And the GI50 [5]?
Answer: 39.1 µM (inactive)

Question: What about the GI50 [6] of the same molecule?
Answer: 24.3 µM (inactive)

Question: What about the GI50 [7] of the same molecule?
Answer: 98.2 µM (inactive)

Question: What about the GI50 [8] of the same molecule?
Answer: 36.5 µM (inactive)

Question: And the GI50 [9]?
Answer: 38.5 µM (inactive)

Question: What about the GI50 [10] of the same molecule?
Answer: 37.3 µM (inactive)

Question: And the GI50 [11]?
Answer: 56.5 µM (inactive)

Question: What about the GI50 [12] of the same molecule?
Answer: 39.2 µM (inactive)

Question: And the GI50 [13]?
Answer: 28.1 µM (inactive)

Question: What about the GI50 [14] of the same molecule?
Answer: 31.3 µM (inactive)

Question: What about the GI50 [15] of the same molecule?
Answer: 20.6 µM (inactive)

Question: What about the GI50 [16] of the same molecule?
Answer: 37.2 µM (inactive)

Question: What about the GI50 [17] of the same molecule?
Answer: 38.8 µM (inactive)

Question: What about the GI50 [18] of the same molecule?
Answer: 52.4 µM (inactive)

Question: And the GI50 [19]?
Answer: > 100 µM (inactive)

Question: With `Cc1csc2nc(-c3ccc(Cl)c([N+](=O)[O-])c3)c(/C=N/NC(=N)N)n12` as the molecule, how does the GI50 [1] read?
Answer: 1.68 µM (inactive)

Question: What about the GI50 [2] of the same molecule?
Answer: 1.69 µM (inactive)

Question: And the GI50 [3]?
Answer: 1.4 µM (inactive)

Question: And the GI50 [4]?
Answer: 1.78 µM (inactive)

Question: And the GI50 [5]?
Answer: 1.77 µM (inactive)

Question: What about the GI50 [6] of the same molecule?
Answer: 2.16 µM (inactive)

Question: And the GI50 [7]?
Answer: 1.4 µM (inactive)

Question: And the GI50 [8]?
Answer: 1.64 µM (inactive)

Question: And the GI50 [9]?
Answer: 1.75 µM (inactive)

Question: What about the GI50 [10] of the same molecule?
Answer: 1.75 µM (inactive)

Question: And the GI50 [11]?
Answer: 1.76 µM (inactive)

Question: What about the GI50 [13] of the same molecule?
Answer: 1.32 µM (inactive)

Question: And the GI50 [14]?
Answer: 1.5 µM (inactive)

Question: What about the GI50 [15] of the same molecule?
Answer: 1.01 µM (active)

Question: What about the GI50 [16] of the same molecule?
Answer: 1.83 µM (inactive)

Question: What about the GI50 [17] of the same molecule?
Answer: 1.96 µM (inactive)

Question: And the GI50 [18]?
Answer: 1.15 µM (inactive)

Question: And the GI50 [19]?
Answer: 1.77 µM (inactive)

Question: For `CCOC(=O)C12C3CCC1C2C(=O)C3` (centres undefined), which GI50 [1] is on record?
Answer: > 100 µM (inactive)

Question: And the GI50 [2]?
Answer: > 100 µM (inactive)

Question: What about the GI50 [3] of the same molecule?
Answer: > 100 µM (inactive)

Question: And the GI50 [4]?
Answer: > 100 µM (inactive)

Question: And the GI50 [5]?
Answer: > 100 µM (inactive)

Question: And the GI50 [6]?
Answer: > 100 µM (inactive)

Question: What about the GI50 [8] of the same molecule?
Answer: > 100 µM (inactive)

Question: What about the GI50 [9] of the same molecule?
Answer: > 100 µM (inactive)

Question: What about the GI50 [10] of the same molecule?
Answer: > 100 µM (inactive)

Question: And the GI50 [11]?
Answer: > 100 µM (inactive)

Question: And the GI50 [12]?
Answer: > 100 µM (inactive)

Question: And the GI50 [13]?
Answer: > 100 µM (inactive)

Question: And the GI50 [14]?
Answer: > 100 µM (inactive)

Question: What about the GI50 [15] of the same molecule?
Answer: > 100 µM (inactive)

Question: What about the GI50 [16] of the same molecule?
Answer: > 100 µM (inactive)

Question: What about the GI50 [20] of the same molecule?
Answer: > 100 µM (inactive)

Question: And the GI50 [17]?
Answer: > 100 µM (inactive)

Question: And the GI50 [18]?
Answer: > 100 µM (inactive)

Question: And the GI50 [19]?
Answer: > 100 µM (inactive)

Question: What does the source list for `N#CC12C(=O)NC(=O)C1(C#N)C1C=CC2CC1` (centres undefined)?
Answer: GI50 [1]: > 100 µM (inactive); GI50 [2]: > 100 µM (inactive); GI50 [3]: > 100 µM (inactive); GI50 [5]: > 100 µM (inactive); GI50 [6]: > 100 µM (inactive); GI50 [7]: > 100 µM (inactive); GI50 [8]: > 100 µM (inactive); GI50 [9]: > 100 µM (inactive); GI50 [10]: > 100 µM (inactive); GI50 [11]: > 100 µM (inactive); GI50 [13]: > 100 µM (inactive); GI50 [14]: > 100 µM (inactive); GI50 [15]: > 100 µM (inactive); GI50 [16]: > 100 µM (inactive); GI50 [17]: > 100 µM (inactive); GI50 [18]: > 100 µM (inactive)

Question: `CCOC(=O)c1nc2ccc(C(F)(F)F)cc2nc1Oc1cc(OC)cc(OC)c1` was tested. Which GI50 [1] did it give?
Answer: > 100 µM (inactive)

Question: And the GI50 [2]?
Answer: 77.6 µM (inactive)

Question: And the GI50 [3]?
Answer: 78.3 µM (inactive)

Question: What about the GI50 [4] of the same molecule?
Answer: 60.5 µM (inactive)

Question: And the GI50 [5]?
Answer: > 100 µM (inactive)

Question: And the GI50 [6]?
Answer: 87.3 µM (inactive)

Question: And the GI50 [7]?
Answer: 17 µM (inactive)

Question: And the GI50 [8]?
Answer: 26.4 µM (inactive)

Question: And the GI50 [9]?
Answer: 36.8 µM (inactive)

Question: What about the GI50 [10] of the same molecule?
Answer: > 100 µM (inactive)

Question: And the GI50 [11]?
Answer: > 100 µM (inactive)

Question: What about the GI50 [12] of the same molecule?
Answer: > 100 µM (inactive)

Question: What about the GI50 [13] of the same molecule?
Answer: > 100 µM (inactive)

Question: What about the GI50 [14] of the same molecule?
Answer: 87.9 µM (inactive)

Question: And the GI50 [15]?
Answer: > 100 µM (inactive)

Question: And the GI50 [17]?
Answer: > 100 µM (inactive)

Question: And the GI50 [18]?
Answer: > 100 µM (inactive)

Question: What about the GI50 [19] of the same molecule?
Answer: > 100 µM (inactive)

Question: What does the source list for `COC(=O)/C=C1/CCC(C)(C(=O)NS(=O)(=O)c2ccc(C)cc2)C1(C)C` (centres undefined)?
Answer: GI50 [1]: > 100 µM (inactive); GI50 [2]: > 100 µM (inactive); GI50 [3]: > 100 µM (inactive); GI50 [4]: > 100 µM (inactive); GI50 [6]: > 100 µM (inactive); GI50 [8]: > 100 µM (inactive); GI50 [9]: > 100 µM (inactive); GI50 [10]: > 100 µM (inactive); GI50 [11]: > 100 µM (inactive); GI50 [12]: > 100 µM (inactive); GI50 [13]: > 100 µM (inactive); GI50 [14]: > 100 µM (inactive); GI50 [15]: > 100 µM (inactive); GI50 [16]: > 100 µM (inactive); GI50 [20]: > 100 µM (inactive); GI50 [17]: > 100 µM (inactive); GI50 [18]: > 100 µM (inactive); GI50 [19]: > 100 µM (inactive)

Question: What does the source list for `CC1=C([S+]([O-])c2ccc(C)cc2)CCC2(CCCCO2)O1` (centres undefined)?
Answer: GI50 [1]: > 100 µM (inactive); GI50 [2]: > 100 µM (inactive); GI50 [3]: > 100 µM (inactive); GI50 [4]: > 100 µM (inactive); GI50 [5]: > 100 µM (inactive); GI50 [6]: > 100 µM (inactive); GI50 [7]: > 100 µM (inactive); GI50 [8]: > 100 µM (inactive); GI50 [9]: > 100 µM (inactive); GI50 [10]: 66.5 µM (inactive); GI50 [11]: > 100 µM (inactive); GI50 [12]: 46.8 µM (inactive); GI50 [14]: > 100 µM (inactive); GI50 [16]: > 100 µM (inactive); GI50 [20]: > 100 µM (inactive); GI50 [17]: > 100 µM (inactive); GI50 [18]: > 100 µM (inactive); GI50 [19]: > 100 µM (inactive)
